ChEMBL document CHEMBL1134506, “Design and synthesis of 2-methyl-2-[4-(2-[5-methyl-2-aryloxazol-4-yl]ethoxy)phenoxy]propionic acids: a new class of dual PPARalpha/gamma agonists” (J Med Chem, 2001)

Legend:
[1] = target: T1, Peroxisome proliferator-activated receptor alpha (Homo sapiens, UniProt Q07869); assay: (§1) Binding affinity at human PPAR alpha
T1 sequence (Q07869 whole entry): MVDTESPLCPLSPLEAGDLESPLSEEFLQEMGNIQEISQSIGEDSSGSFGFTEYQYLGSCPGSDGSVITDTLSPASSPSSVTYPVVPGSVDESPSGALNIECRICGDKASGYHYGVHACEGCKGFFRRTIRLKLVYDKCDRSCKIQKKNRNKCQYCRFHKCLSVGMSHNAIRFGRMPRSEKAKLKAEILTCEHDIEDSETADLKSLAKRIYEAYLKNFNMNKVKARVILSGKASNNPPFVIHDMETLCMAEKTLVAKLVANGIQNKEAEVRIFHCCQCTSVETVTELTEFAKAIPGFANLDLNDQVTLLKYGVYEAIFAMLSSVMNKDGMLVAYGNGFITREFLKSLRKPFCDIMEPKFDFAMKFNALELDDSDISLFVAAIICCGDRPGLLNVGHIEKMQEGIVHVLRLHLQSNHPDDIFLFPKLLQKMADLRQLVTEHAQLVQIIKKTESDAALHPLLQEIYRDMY

[2] = target: T1, Peroxisome proliferator-activated receptor alpha; assay: Binding affinity towards human […] proliferator activated receptor alpha (hPPARalpha)
[3] = target: T2, Peroxisome proliferator-activated receptor gamma (Homo sapiens, UniProt P37231)
T2 sequence (P37231 whole entry): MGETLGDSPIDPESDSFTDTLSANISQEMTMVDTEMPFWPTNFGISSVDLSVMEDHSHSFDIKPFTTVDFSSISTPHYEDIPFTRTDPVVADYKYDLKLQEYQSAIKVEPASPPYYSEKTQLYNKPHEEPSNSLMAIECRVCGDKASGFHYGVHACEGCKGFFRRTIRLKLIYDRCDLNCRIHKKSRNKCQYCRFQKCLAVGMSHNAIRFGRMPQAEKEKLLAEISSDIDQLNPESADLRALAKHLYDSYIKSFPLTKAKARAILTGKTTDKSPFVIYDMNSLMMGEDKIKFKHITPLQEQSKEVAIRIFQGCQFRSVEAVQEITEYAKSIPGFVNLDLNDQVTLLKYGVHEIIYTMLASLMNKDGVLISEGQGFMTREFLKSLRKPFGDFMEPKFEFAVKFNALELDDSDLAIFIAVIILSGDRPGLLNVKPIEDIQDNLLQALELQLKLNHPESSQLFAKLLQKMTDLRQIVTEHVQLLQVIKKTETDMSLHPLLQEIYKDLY

[4] = target: T2, Peroxisome proliferator-activated receptor gamma; remark: listed apart in the source
Description: Binding affinity at human peroxidase proliferator activated receptor gamma (hPPARgamma)

[5] = target: T3, Peroxisome proliferator-activated receptor alpha (Homo sapiens) (UniProt Q07869); assay: as §1
T3 sequence (whole entry): T1 sequence (Q07869 whole entry)

[6] = target: T4, Peroxisome proliferator-activated receptor gamma (Homo sapiens) (UniProt P37231); assay: Binding affinity at human PPAR gamma
T4 sequence (whole entry): T2 sequence (P37231 whole entry)

[7] = target: T2, Peroxisome proliferator-activated receptor gamma; assay: Binding affinity at human […] proliferator activated receptor gamma (hPPARgamma); No binding
[8] = target: T1, Peroxisome proliferator-activated receptor alpha; assay: Binding affinity towards human […] proliferator activated receptor alpha (hPPARalpha); No binding

EC50 [1] | IC50 [2] | EC50 [3] | IC50 [4] | SMILES | Efficacy [5] | Efficacy [6] | IC50 [7] | IC50 [8]
149 nM | 174 nM | 882 nM | 548 nM | Cc1oc(-c2ccc(-c3ccccc3)cc2)nc1CCOc1ccc(OC(C)(C)C(=O)O)cc1 | – | – | – | –
61.9 nM | 242 nM | 1720 nM | 4560 nM | Cc1oc(-c2ccc(Br)cc2)nc1CCOc1ccc(OC(C)(C)C(=O)O)cc1 | – | – | – | –
625 nM | 2030 nM | 2750 nM | 3120 nM | Cc1oc(-c2ccccc2)nc1CCOc1ccc(OC(C)C(=O)O)cc1 (stereo unspecified) | – | – | – | –
– | – | – | – | Cc1c(C)c2c(c(C)c1O)CCC(C)(COc1ccc(CC3SC(=O)NC3=O)cc1)O2 (stereo unspecified) [TROGLITAZONE] | < 20% | – | – | Not Active
771 nM | 4090 nM | 8 nM | 14 nM | Cc1oc(-c2ccccc2)nc1CCOc1ccc(CC2SC(=O)NC2=O)cc1 (stereo unspecified) | – | – | – | –
717 nM | 1440 nM | 2060 nM | 3020 nM | Cc1oc(-c2ccccc2)nc1CCOc1ccc(OC(C)(C)C(=O)O)cc1 | – | – | – | –
– | – | – | – | CN(CCOc1ccc(CC2SC(=O)NC2=O)cc1)c1ccccn1 (stereo unspecified) | 20% | – | – | –
2750 nM | 10600 nM | – | 10600 nM | Cc1oc(-c2ccccc2)nc1CCOc1ccc(OCC(=O)O)cc1 | – | 20% | – | –

SMILES | EC50 [1] | IC50 [2] | EC50 [3] | IC50 [4] | Efficacy [5] | Efficacy [6] | IC50 [7] | IC50 [8]
CC(C)(Oc1ccc(C(=O)c2ccc(Cl)cc2)cc1)C(=O)O [FENOFIBRIC ACID] | – | 68000 nM | – | – | < 20% | < 20% | Not Active | –
